Some test systems named below: SNB-78; SF-539; M19-MEL; HOP-18; A549; DMS-114; M14; DLD-1; A498; ACHN; DMS-273; T47D; MDA-MB-435; MDA-MB-231; SK-MEL-5; PC-3; Hs-578T; MCF7; MDA-N; BT-549.
Experiment in all cases: inhibition of tumour cell growth, NCI panel, 48 h

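Cells were grown in 96-well plates and exposed to each compound for 48 hours at five concentrations; endpoints were interpolated linearly between bracketing concentrations, or set to the highest concentration if not reached. GI50 is the concentration that inhibits growth by half.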 Calls of active or inactive are those of the source. Cut-off read from the data, not from the text of the source: active = GI50 up to about 1.1 µM and inactive = higher.

Consider `CN1CN(C(=O)N2CN(C)C(=O)N(C)C2)CN(C)C1=O`, for which the GI50 in the test with SNB-78, with SF-539, with M19-MEL, in the test on HOP-18, with A549 and with DMS-114 was > 100 µM (inactive) each time. For the same molecule, the GI50 in the test on M14, with DLD-1, in the test on A498 and in the test on ACHN was > 100 µM (inactive) each time.
Regarding `O=C(O)C12CC3CC(C1)C2C=C3P(=O)(O)O` (stereo not drawn), the GI50 in the test on M19-MEL, with DMS-273, in the test with DMS-114, with M14, with DLD-1 and with ACHN was > 100 µM (inactive) in each case.
With `CC(=O)OC1CC[C@@]2(C)C(=CC[C@@H]3[C@@H]2CC[C@]2(C)Nc4nn(S(C)(=O)=O)cc4C[C@@H]32)C1` (stereo partly drawn), the GI50 with T47D was 14.2 µM (inactive); with MDA-MB-435, 20 µM (inactive); with MDA-MB-231 it was 31 µM (inactive); with SK-MEL-5, 15.2 µM (inactive); with PC-3 it was 28.2 µM (inactive); in the test with Hs-578T, 67 µM (inactive). For the same molecule, the GI50 in the test on MCF7 was 16.6 µM (inactive); in the test on MDA-N, 29 µM (inactive); with M14, 20.7 µM (inactive); in the test on A498, > 100 µM (inactive); with BT-549, 20.3 µM (inactive).
In the case of `CCOC(=O)C1=NN(c2ccccc2)C2=CC(C)=NN(C)C(=S)N21`, the GI50 in the test with T47D, in the test with SF-539, with MDA-MB-435, with MDA-MB-231, in the test with SK-MEL-5 and with A549 was > 100 µM (inactive) throughout. Also, the GI50 in the test on PC-3, in the test with Hs-578T, in the test on MCF7, with MDA-N, in the test on M14 and with ACHN was > 100 µM (inactive) in each case. The GI50 in the test on BT-549 was > 100 µM (inactive).
With `O=C(/N=N/c1cc(Cl)ccc1Cl)NNc1cc(Cl)ccc1Cl`, the GI50 with T47D was 10.5 µM (inactive); in the test on MDA-MB-435, 13.7 µM (inactive); with MDA-MB-231, 15.7 µM (inactive); in the test on SK-MEL-5, 12.7 µM (inactive); with PC-3, 10.9 µM (inactive); with Hs-578T it was 25.5 µM (inactive). For the same molecule, the GI50 is 18.4 µM (inactive) in the test with MCF7; 25.4 µM (inactive) in the test on MDA-N; 17.1 µM (inactive) with M14; 26.9 µM (inactive) in the test with A498; > 10 µM (inactive) in the test with BT-549.
As to `Cc1cc(O)nc(NN2C(Cl)C(=O)C2c2c(O)ccc3ccccc23)n1` (stereo not drawn), the GI50 was 20.1 µM (inactive) in the test on SNB-78; 21.9 µM (inactive) with SF-539; 39.6 µM (inactive) with M19-MEL; 16.4 µM (inactive) in the test on DMS-273; 15.2 µM (inactive) with SK-MEL-5; 12 µM (inactive) in the test on HOP-18. For the same molecule, the GI50 in the test with A549 was 36.2 µM (inactive); in the test on DMS-114, 19.8 µM (inactive); with M14, 15.2 µM (inactive); in the test on ACHN, 20.7 µM (inactive).
Regarding `CCP(=S)(CC)CCl`, the GI50 in the test on T47D, in the test on MDA-MB-231, in the test with SK-MEL-5, with A549, in the test with PC-3 and in the test on Hs-578T was > 100 µM (inactive) in each case. Further, the GI50 in the test on MCF7, in the test with MDA-N, in the test on M14 and in the test with ACHN was > 100 µM (inactive) in each case.
As to `COc1ccc(C(=O)Cc2cc(OC)ccc2OC)cc1`, the GI50 with SNB-78 is 42.4 µM (inactive); with SF-539, > 100 µM (inactive); in the test on M19-MEL it was > 100 µM (inactive); with DMS-273, > 100 µM (inactive); in the test on SK-MEL-5, > 100 µM (inactive); in the test on HOP-18, > 100 µM (inactive). Also, the GI50 in the test with A549 was > 100 µM (inactive); in the test with DMS-114, 66.8 µM (inactive); with M14, > 100 µM (inactive); with DLD-1 it was > 100 µM (inactive); in the test with A498, 39.2 µM (inactive); in the test with ACHN, > 100 µM (inactive).
In the case of `CC(=O)OC1CC2(O)C(CCC3(C)C(c4ccc(=O)oc4)CCC32O)C2(C)CCC(O)C=C12` (stereo not drawn), the GI50 in the test on SNB-78 was 0.00989 µM (active); with SF-539, 0.00775 µM (active); in the test on M19-MEL, 0.0234 µM (active); in the test on DMS-273 it was 0.005 µM (active); in the test with SK-MEL-5, 0.00439 µM (active); in the test with HOP-18 it was 0.0094 µM (active). For the same molecule, the GI50 was 0.00116 µM (active) in the test on DMS-114, 0.0375 µM (active) in the test on MCF7, 0.0375 µM (active) in the test with DLD-1 and 0.0428 µM (active) with A498.

The record behind these values is ChEMBL document CHEMBL1201862, “PubChem BioAssay data set” (2004).
